Assays:
Format in all cases: cell-based, Staphylococcus aureus
S. aureus (PCI 1203) [1] = assay: Competitive hemin uptake assay (fluorescence microscopy); details: for Fluorescence after 15 min / Fluorescence after 15 min exposure + 1 equiv. hemin: Fe-deficient conditions (TS media containing 3 mM bipy), no background subtraction; for effect of hemin competition on uptake: one equivalent of hemin, 15 minutes of co-incubation
Experimental: To elucidate the relevant structural features for the specific uptake of Ga-PpIX by S. aureus, we performed a competitive uptake assay using one equivalent of hemin against Ga-PpIX, PpIX, and eleven other fluorescent PpIX derivatives, with evaluation by fluorescence microscopy after 15 minutes of co-incubation (FIG. 5 and Table 4). These studies were partly guided by insights taken from the X-ray structures of hemin and Ga-PpIX within the binding pocket of IsdH: (i) coordination of the metal center by an apical tyrosine residue; (ii) the flanking of vinyl groups on pyrrole rings A and B against nearby aromatic residues; and (iii) the extension and presumed hydration of the propionyl groups (rings C and D) outside of the binding pocket.
Bacteria were cultured and assayed in iron-deficient media unless otherwise noted. A stock solution of Ga-PpIX (14.6 μM) was prepared by dispersing 5 mg in 1 mL of 10% DMSO in PBS for 10 minutes in an ultrasonic cleaning bath protected from light, followed by filtration and 10× dilution in PBS just prior to use. Bacterial suspensions (0.5 mL) were treated with freshly prepared solutions of PpIX derivatives for specified periods (5-15 min), then harvested by centrifugation at 5.2 g for 5 minutes, redispersed twice in 0.5 mL deionized water, and centrifuged a third time. A 10-μL aliquot of concentrated bacteria was deposited onto a glass slide and dried in air for 20 min, then imaged by fluorescence microscopy as described above. For details on fluorescence image processing and quantitative analysis, see Supporting Information.
S. aureus (PCI 1203; ATCC 10537) was first cultured in standard TS broth, then in media containing 3 mM bipyridine. Bacteria were pelleted and washed with PBS buffer three times, then resuspended to a final concentration of 10^8 cfu/mL. Stock solutions of hemin and PpIX derivatives 1-13 were prepared at initial concentrations of 292 μM; hemin and fluorescent PpIX solutions were mixed in a 1:1 ratio (0.5 mL), then added to 0.5 mL of bacterial suspension and allowed to sit for 15 min at room temperature. For control studies, hemin or fluorophore solutions were substituted with PBS to maintain constant […]. Bacteria were harvested and washed as described above, then evaluated by fluorescence microscopy for relative uptake efficiency.
Darkfield and fluorescent images were acquired in succession, with the former used to map regions of interest (ROIs) by tracing the outlines of bacteria (FIG. 8). Three images were acquired for each sample; in each case, the tracing map was overlaid onto the fluorescence image to calculate pixel intensities within each ROI, using the mean pixel intensity for quantitative analysis. Bacteria were also imaged without treatment with PpIX analogs, most of which produced values close to that of background except for Salmonella enterica, which served as the upper limit of autofluorescence (cf. FIG. 4). Data collection and image analyses were performed by the same user to ensure consistency for comparative analysis.

[2] = tested on: S. aureus (PCI 1203; ATCC 10537); assay: aPDI with CFL irradiation (406 nm), planktonic bacteria, drop-plate colony count; details: for potency relative to dark toxicity (0 min exposure): 3-log reduction
Experimental: The aPDI properties of Ga-PpIX were compared against PpIX, whose photosensitizer activities are well known and whose optical profile is similar to that of Ga-PpIX (FIG. 2).
All bacterial strains were cultured at 37° C. in an aerobic atmosphere unless otherwise noted. […] Bacterial counts were estimated in units of cfu/mL by plating serial dilutions onto agar plates, followed by incubation for 16 hours at 37° C. […] Further details and variations on iron-deficient culture conditions are provided in Supporting Information.
Antimicrobial assays were performed on planktonic bacteria at 10^7 cfu/mL with variable exposure times to CFL irradiation, followed by plating on agar and incubation at 37° C. […] The irradiated bacteria were plated onto agar in serial tenfold dilutions (10^7-10^1 cfu/mL); controls included one set of wells without photosensitizer, and one set of wells with photosensitizer but without 15 min irradiation, prior to plating (dark toxicity). Bacterial counts were determined by the drop-plate method using TS-agar plates, and reported in colony-forming units per milliliter (cfu/mL).
The irradiation source consisted of a 20-W compact fluorescent lightbulb (CFL; Sunlite SL20/BLB) housed in an ellipsoidal reflector dome.

S. aureus [3] = assay: Antibacterial activity assay with LED light
Experimental: (§1) Antibacterial activity assay general protocol: Used LED light to test conditions. Bacteria were grown in TS broth, followed by 3 mM bipyridine in TS broth until log phase. Bacteria were then diluted with PBS, to OD 0.1 (˜10^) and then to ˜10^7 cfu/mL. 100 uL of bacteria were placed in 96 well plates with the appropriate GaPpIX concentration. 2× serial dilutions were then done to obtain other GaPpIX concentrations. Each concentration was done in triplicate. Bacteria were left incubating and irradiating for different amount of times at different light powers or left in the dark. 10× Serial dilutions were done and bacteria were plated for colony counting using the drop-plate technique. Colonies were counted after 24 hours. As reported herein, a 3-log reduction equals measurable antimicrobial action; a 6-log reduction equals total eradication.
(§2) Stock solution preparation (AVM-3-36, 10 nm AgNP). Prepared a solution of (AVM-2-273) GaPpIX-apoHb 1 mg/mL in MP H2O, deaerated. Took 10 mL of 10 nm AgNPs, centrifuged at 900 G for 5 min (Beckman, 3100 RPM), took supernantant and added 200 uL of GaPpIXHb. After overnight, centrifuged 3000 RPM g for 5 minutes (Beckman). Took supernantant and centrifuged using a 100 K CentriCon tube at 4000 RPM for 5 minutes, 3×. Added 15 mM borate buffer to NPs. Based on calibration curve, the stock solution is 1.94 ug/mL AgNP, so stock: 79 μg/mL AgNP, 10.37 μg/mL GaPpIXHb, 0.446 μg/mL GaPpIX (refer to AVM-2-293A and AVM-3-3).
(§3) The following antibacterial activity measurements were assayed in the presence of AgNP.

MRSA383 = assay: Antibacterial activity assay with LED light; details: in the presence of 10 nm AgNP
Experimental: as §1, §2, §3

MRSA385 = assay: Antibacterial activity assay with LED light; details: in the presence of 10 nm AgNP
Experimental: as §1, §2, §3

MRSA386 = assay: Antibacterial activity assay with LED light; details: in the presence of 10 nm AgNP
Experimental: as §1, §2, §3

MRSA387 = assay: Antibacterial activity assay with LED light; details: in the presence of 10 nm AgNP
Experimental: as §1, §2, §3

S. aureus [4] = assay: aPDI with 405-nm LED bar, summary over strains; details: Ga-hemoglobin on 10-nm AgNP, 405-nm light, fluence about 1 J/cm^2
Experimental: as §1

S. aureus (PCI 1203) [5] = assay: Competitive hemin uptake assay (fluorescence microscopy); details: standard conditions (TS media); no background subtraction

Molecule	Fluorescence after 15 min (S. aureus (PCI 1203) [1]) [a.u.]	Fluorescence after 15 min exposure + 1 equiv. hemin (S. aureus (PCI 1203) [1]) [a.u.]	effect of hemin competition on uptake (S. aureus (PCI 1203) [1])	also measured
3,8-Diacetyldeuteroporphyrin dimethyl diester [DiAcDP diMe (12)]	20.9	18.05	less affected by hemin	–
CC1=C(CCC(=O)O)c2cc3[nH]c(cc4nc(cc5[nH]c(cc1n2)c(C)c5C(C)O)C(C)=C4C(C)O)c(C)c3CCC(=O)O (stereo not drawn) [HP (4), hematoporphyrin]	14.38	9.58	–	–
COC(=O)CCc1c(C)c2cc3nc(cc4nc(cc5[nH]c(cc1[nH]2)c(CCC(=O)OC)c5C)C(C(C)O)=C4C)C(C(C)O)=C3C (stereo not drawn) [HP diMe (8), HP dimethyl diester]	29.05	26.9	–	–
C=CC1=C(C)c2cc3[nH]c(cc4[nH]c(cc5nc(cc1n2)C(C)=C5C=C)c(C)c4CCC(=O)OC)c(CCC(=O)OC)c3C [PpIX diMe (7), PpIX dimethyl diester]	15.75	12.75	–	–
C[n+]1ccc(-c2c3nc(c(-c4cc[n+](C)cc4)c4ccc([nH]4)c(-c4cc[n+](C)cc4)c4nc(c(-c5cc[n+](C)cc5)c5ccc2[nH]5)C=C4)C=C3)cc1 [TMPyP, reference compound]	–	–	–	Antimicrobial activity (minimum 3-log CFU reduction) ([2]; 0 min (dark), no irradiation (dark toxicity)): < 7.4 μM; Antimicrobial activity (minimum 3-log CFU reduction) ([2]; 0 min (dark), no irradiation (dark toxicity), listed as TMPy): <7.4 μM; Antimicrobial activity (minimum 3-log CFU reduction) ([2]; 5 min CFL 406 nm, 12.4 mW/cm^2 (3.7 J/cm^2)): 0.92 μM; potency relative to dark toxicity (0 min exposure) ([2]; 5 min CFL): <8x; Antimicrobial activity (minimum 3-log CFU reduction) ([2]; 15 min CFL 406 nm, 12.4 mW/cm^2 (11.2 J/cm^2)): 0.23 μM; potency relative to dark toxicity (0 min exposure) ([2]; 15 min CFL): <32x; concentration for 3-log reduction (measurable antimicrobial action) (S. aureus [3]): 235 nM; concentration for 6-log reduction (total eradication) (S. aureus [3]): 940 nM
C=CC1=C(C)c2cc3[n-]c(cc4nc(cc5[n-]c(cc1n2)c(C)c5C=C)C(C)=C4CCC(=O)O)c(CCC(=O)O)c3C.[Zn+2] [Zn-PpIX (3), Zn-PpIX]	31.45	16.87	moderately affected by hemin	–
C=CC1=C(C)c2cc3[n-]c(cc4[n-]c(cc5nc(cc1n2)C(C)=C5C=C)c(C)c4CCC(=O)O)c(CCC(=O)O)c3C.[Cl-].[Fe+3] [hemin, Fe(III)-protoporphyrin IX, reference compound]	2.55	–	–	–
Ga(III) diacetyldeuteroporphyrin (diAcDP) dimethyl diester [Ga-DiAcDP diMe (11)]	12.27	11.85	less affected by hemin	–
Ga(III)-PpIX dimethyl diester [Ga-PpIX diMe (6)]	60.55	33.95	–	–
GaPpIX/10 nm HbAgNP: GaPpIX added to apohemoglobin (Ga-hemoglobin) adsorbed onto 10-nm Ag nanoparticles	–	–	–	concentration for 3-log reduction (MRSA383): 27 nM; concentration for 6-log reduction (MRSA383): 79 nM; concentration for 3-log reduction (MRSA385): 27 nM; concentration for 6-log reduction (MRSA385): 109 nM; concentration for 3-log reduction (MRSA386): 79 nM; concentration for 6-log reduction (MRSA386): 158 nM; concentration for 3-log reduction (MRSA387): 43 nM; concentration for 6-log reduction (MRSA387): 218 nM; concentration for 3-log reduction (S. aureus [3]; in the presence of 10 nm AgNP): 22 nM; concentration for 6-log reduction (S. aureus [3]; in the presence of 10 nm AgNP): 27 nM; GaPpIX effective concentration (aPDI) (S. aureus [4]): 0.022 to 0.080 µM
Verteporfin [Verteporfin (13), reference compound]	30.75	28	less affected by hemin	Fluorescence after 15 min (S. aureus (PCI 1203) [5]): 25.82 a.u.; Fluorescence after 15 min exposure + 1 equiv. hemin (S. aureus (PCI 1203) [5]): 23.72 a.u.
Zn-HP [Zn-HP (5)]	29.2	14.52	moderately affected by hemin	–
di-O-acetyl-HP dimethyl diester [DiAcHP diMe (9)]	21.6	18.95	less affected by hemin	–
di-O-succinyl-HP dimethyl diester [DiSuccHP diMe (10)]	19.37	16.9	less affected by hemin	–
